Results from PubChem BioAssay AID1845201 (Molecular Pharmacology Branch, DTP, NCI, 2023).

Test system: COR L88 complex tumor spheroid viability
Assay: Anticancer human tumor COR L88 cell line growth inhibition;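 further: compound exposure lasted 7 days before viability readout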;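 on viability, T/C: percent of DMSO vehicle-treated spheroids = 100%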
Settings: for IC50: curve of first compound; for viability, T/C: stronger effect = lower value
Text: Multicellular complex tumor spheroid response to DNA repair inhibitors in combination with DNA-damaging drugs
This study explores the anticancer activities of DNA-damaging drugs and inhibitors of DNA damage repair, both as single agents and in combinations. Complex tumor spheroids comprised of malignant cells, endothelial cells and mesenchymal stem cells served as an in vitro model for human solid tumors. This model system incorporates physiologically relevant features and patient-derived or established malignant cell lines with clinically relevant genetic alterations from many tumor types. Twenty-six patient-derived or established malignant cell lines were evaluated representing sarcoma, melanoma, small cell lung cancer (SCLC), non-small cell lung cancer (NSCLC), as well as bladder, ovarian and pancreatic cancers. The concentration ranges selected for each drug and investigational agent were based upon clinically achievable concentrations if the clinical Cmax of the agent was known.
Compounds. The drugs and compounds olaparib (NSC753686), talazoparib (NSC767125), berzosertib (NSC777718), elimusertib (NSC800525), nedisertib (NSC802822), VX-984 (NSC792969), AZD-1390 (NSC803789), temozolomide (NSC362856), topotecan (NSC609699), trabectedin (NSC813783), staurosporine (NSC755774), and gemcitabine (NSC613327) were obtained from the National Cancer Institute (NCI) Developmental Therapeutics Program Chemical Repository. The FDA-approved anticancer drug set is available from the Developmental Therapeutics Program at https://dtp.cancer.gov/organization/dscb/obtaining/available_plates.htm. […] The stock solutions were prepared in dimethyl sulfoxide (DMSO, Sigma-Aldrich, St. Louis, MO, cat. D2650) at 400-fold the tested concentration and stored at -70 degrees C. Prior to their use, the stock solutions were diluted in fresh medium and the final DMSO concentration in the assay was 0.25% (v/v). All drugs and investigational agents were tested over a range starting from a high concentration at or near the clinical Cmax and decreasing in half-log increments. If the clinical Cmax for an agent had not been determined, the highest concentration tested was 10 microM.
Cell Lines. The patient-derived cancer cell (PDC) lines: 156681-154-R-J1-PDC, 283228-195-R-J1-PDC, 287954-098-R-J1-PDC, 292921-168-R-J2-PDC, 349418-098-R-PDC, 425362-245-T-J1-PDC, 556581-035-R-J1-PDC, and BL0293-F563-PDC were received from the NCI Patient-Derived Models Repository (PDMR, https://pdmr.cancer.gov). The established cell lines HS-SY-2 (RRID:CVCL_8719), MPNST, and SYO-1 (RRID:CVCL_7146) were obtained from the Sloan Kettering Institute. The alveolar soft parts sarcoma cell line ASPS-1 (RRID:CVCL_S738) was established at the NCI and grown from internal seed stocks. The following established cell lines were purchased from the American Type Culture Collection (ATCC, Manassas, VA): G-401 (ATCC, cat. CRL-1441, RRID:CVCL_0270), SW982 (ATCC, cat. HTB-93, RRID:CVCL_1734), VA-ES-BJ (ATCC, cat. CRL-2138, RRID:CVCL_1785), NCI-H719 (ATCC, cat. CRL-5837, RRID:CVCL_1582), NCI-H196 (ATCC, cat. CRL-5823, RRID:CVCL_1509), NCI-H841 (ATCC, cat. CRL-5845, RRID:CVCL_1595), NCI-H1618 (ATCC, cat. CRL-5879, RRID:CVCL_1480), NCI-H1876 (ATCC, cat. CRL-5902, RRID:CVCL_1503), DMS 114 (ATCC, cat. CRL-2066; RRID:CVCL_1174), NCI-H211 (ATCC, cat. CRL-5824; RRID:CVCL_1529), and SW 1271 (ATCC, cat. CRL-2177, RRID:CVCL_1716). The small cell lung cancer cell line COR-L88 was purchased from Sigma-Aldrich (cat. 92031917-1VL, RRID:CVCL_1141). The non-small cell lung cancer cell lines NCI-H226 (RRID:CVCL_1544) and NCI-H322M (RRID:CVCL_1557) were established at the NCI and grown from internal seed stocks. Pooled donor human umbilical vein endothelial cells (HUVEC, Lonza, cat. CC-2519) and human mesenchymal stem cells (hMSC, Lonza, cat. PT-2501) were purchased from Lonza (Walkersville, MD).
Cell Culture. All cells were maintained in an incubator at 37 degrees C and 5% CO2 with 95% humidity. […]

[1] = second compound 0.003 µM, first compound 0.00949 µM
[2] = second compound 0.003 µM, first compound 0.03 µM
[3] = second compound 0.003 µM, first compound 0.0949 µM
[4] = second compound 0.003 µM, first compound 0.3 µM
[5] = second compound 0.003 µM, first compound 0.949 µM
[6] = second compound 0.003 µM, first compound 3 µM

CNCc1ccc(-c2cc(-c3nc(-c4ccc(S(=O)(=O)C(C)C)cc4)cnc3N)on2)cc1 + COc1cc2c(cc1O)CCNC21CSC2c3c(OC(C)=O)c(C)c4c(c3C(COC1=O)N1C(O)C3Cc5cc(C)c(OC)c(O)c5C(C21)N3C)OCO4
IC50 (second compound 30 pM): 394 nM
IC50 (second compound 94.9 pM): 331 nM
IC50 (second compound 0.0003 µM): 248 nM
IC50 (second compound 0.000949 µM): 30.7 nM
IC50 (second compound 0.003 µM): < 9.49 nM
viability, T/C (second compound 30 pM, first compound 0.00949 µM): 108%
viability, T/C (second compound 30 pM, first compound 0.03 µM): 110%
viability, T/C (second compound 30 pM, first compound 0.0949 µM): 101%
viability, T/C (second compound 30 pM, first compound 0.3 µM): 57.5%
viability, T/C (second compound 30 pM, first compound 0.949 µM): 22.4%
viability, T/C (second compound 30 pM, first compound 3 µM): 7.83%
viability, T/C (second compound 94.9 pM, first compound 0.00949 µM): 102%
viability, T/C (second compound 94.9 pM, first compound 0.03 µM): 106%
viability, T/C (second compound 94.9 pM, first compound 0.0949 µM): 101%
viability, T/C (second compound 94.9 pM, first compound 0.3 µM): 50.2%
viability, T/C (second compound 94.9 pM, first compound 0.949 µM): 22.5%
viability, T/C (second compound 94.9 pM, first compound 3 µM): 5.19%
viability, T/C (second compound 0.0003 µM, first compound 0.00949 µM): 82%
viability, T/C (second compound 0.0003 µM, first compound 0.03 µM): 91.2%
viability, T/C (second compound 0.0003 µM, first compound 0.0949 µM): 75.9%
viability, T/C (second compound 0.0003 µM, first compound 0.3 µM): 43.7%
viability, T/C (second compound 0.0003 µM, first compound 0.949 µM): 19.8%
viability, T/C (second compound 0.0003 µM, first compound 3 µM): 8.93%
viability, T/C (second compound 0.000949 µM, first compound 0.00949 µM): 62.4%
viability, T/C (second compound 0.000949 µM, first compound 0.03 µM): 49.4%
viability, T/C (second compound 0.000949 µM, first compound 0.0949 µM): 31.6%
viability, T/C (second compound 0.000949 µM, first compound 0.3 µM): 10.9%
viability, T/C (second compound 0.000949 µM, first compound 0.949 µM): 7.96%
viability, T/C (second compound 0.000949 µM, first compound 3 µM): 3.08%
viability, T/C [1]: 0.92%
viability, T/C [2]: 0.86%
viability, T/C [3]: 0.58%
viability, T/C [4]: 0.62%
viability, T/C [5]: 0.86%
viability, T/C [6]: 0.52%

Cn1ncnc1[C@H]1c2n[nH]c(=O)c3cc(F)cc(c23)N[C@@H]1c1ccc(F)cc1 + CC[C@@]1(O)C(=O)OCc2c1cc1n(c2=O)Cc2cc3c(CN(C)C)c(O)ccc3nc2-1
IC50 (second compound 0.003 µM): 90.9 nM
IC50 (second compound 0.00949 µM): < 9.49 nM
IC50 (second compound 0.03 µM): < 9.49 nM
IC50 (second compound 0.0949 µM): < 9.49 nM
IC50 (second compound 0.3 µM): < 9.49 nM
viability, T/C [1]: 65.9%
viability, T/C [2]: 61.9%
viability, T/C [3]: 47.4%
viability, T/C [4]: 42.4%
viability, T/C [5]: 41.1%
viability, T/C [6]: 38.3%
viability, T/C (second compound 0.00949 µM, first compound 0.00949 µM): 49.7%
viability, T/C (second compound 0.00949 µM, first compound 0.03 µM): 44%
viability, T/C (second compound 0.00949 µM, first compound 0.0949 µM): 44.1%
viability, T/C (second compound 0.00949 µM, first compound 0.3 µM): 43.1%
viability, T/C (second compound 0.00949 µM, first compound 0.949 µM): 40.2%
viability, T/C (second compound 0.00949 µM, first compound 3 µM): 40.6%
viability, T/C (second compound 0.03 µM, first compound 0.00949 µM): 48.2%
viability, T/C (second compound 0.03 µM, first compound 0.03 µM): 49.5%
viability, T/C (second compound 0.03 µM, first compound 0.0949 µM): 43.2%
viability, T/C (second compound 0.03 µM, first compound 0.3 µM): 41.5%
viability, T/C (second compound 0.03 µM, first compound 0.949 µM): 38.1%
viability, T/C (second compound 0.03 µM, first compound 3 µM): 36.5%
viability, T/C (second compound 0.0949 µM, first compound 0.00949 µM): 41.2%
viability, T/C (second compound 0.0949 µM, first compound 0.03 µM): 38.4%
viability, T/C (second compound 0.0949 µM, first compound 0.0949 µM): 37.3%
viability, T/C (second compound 0.0949 µM, first compound 0.3 µM): 34.9%
viability, T/C (second compound 0.0949 µM, first compound 0.949 µM): 31.6%
viability, T/C (second compound 0.0949 µM, first compound 3 µM): 24.5%
viability, T/C (second compound 0.3 µM, first compound 0.00949 µM): 36%
viability, T/C (second compound 0.3 µM, first compound 0.03 µM): 32.6%
viability, T/C (second compound 0.3 µM, first compound 0.0949 µM): 32.4%
viability, T/C (second compound 0.3 µM, first compound 0.3 µM): 26.9%
viability, T/C (second compound 0.3 µM, first compound 0.949 µM): 24.6%
viability, T/C (second compound 0.3 µM, first compound 3 µM): 17.4%
